32 molecules from ChEMBL document CHEMBL4138172, “Synthesis of bis-indolylmethanes as new potential inhibitors of β-glucuronidase and their molecular docking studies” (Eur J Med Chem, 2018) can be followed below.

This test concerns the target T1, Beta-glucuronidase (Homo sapiens, UniProt P08236).
T1 sequence (P08236 whole entry): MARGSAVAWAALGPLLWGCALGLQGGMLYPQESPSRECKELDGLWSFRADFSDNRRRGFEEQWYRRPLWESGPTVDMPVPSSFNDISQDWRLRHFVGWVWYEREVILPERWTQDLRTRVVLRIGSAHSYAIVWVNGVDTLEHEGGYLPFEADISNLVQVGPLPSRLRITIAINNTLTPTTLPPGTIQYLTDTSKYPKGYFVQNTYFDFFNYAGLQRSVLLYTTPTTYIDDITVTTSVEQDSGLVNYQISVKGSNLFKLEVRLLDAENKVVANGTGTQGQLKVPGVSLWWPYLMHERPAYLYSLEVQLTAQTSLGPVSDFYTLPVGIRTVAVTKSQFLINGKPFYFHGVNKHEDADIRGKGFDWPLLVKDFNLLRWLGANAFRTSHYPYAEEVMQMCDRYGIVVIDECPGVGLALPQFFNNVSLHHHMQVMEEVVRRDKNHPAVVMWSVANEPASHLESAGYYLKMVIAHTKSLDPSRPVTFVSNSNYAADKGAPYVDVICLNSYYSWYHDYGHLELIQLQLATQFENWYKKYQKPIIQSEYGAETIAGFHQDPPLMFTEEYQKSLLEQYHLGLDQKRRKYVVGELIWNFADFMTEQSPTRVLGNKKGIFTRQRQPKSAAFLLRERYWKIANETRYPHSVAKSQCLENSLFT
Briefly: Inhibition of human beta-glucuronidase.

As for `COc1ccc(/C=N/NC(=O)c2ccc3[nH]cc(C(c4ccc(C)cc4)c4c[nH]c5ccc(C(=O)N/N=C/c6ccc(OC)cc6O)cc45)c3c2)c(O)c1`, the IC50 turned out to be 3.45 µM.

Take `Cc1ccc(C(c2c[nH]c3ccc(C(=O)N/N=C/c4ccc(Cl)cc4)cc23)c2c[nH]c3ccc(C(=O)N/N=C/c4ccc(Cl)cc4)cc23)cc1`: inhibition was half-maximal at 5.8 µM (IC50). The result for `COc1ccc(/C=N/NC(=O)c2ccc3[nH]cc(C(c4ccc(C)cc4)c4c[nH]c5ccc(C(=O)N/N=C/c6ccc(OC)c(O)c6)cc45)c3c2)cc1O` reads 2.67 µM; that for `Cc1ccc(C(c2c[nH]c3ccc(C(=O)N/N=C/c4cc(O)ccc4O)cc23)c2c[nH]c3ccc(C(=O)N/N=C/c4cc(O)ccc4O)cc23)cc1`, 1.14 µM; that for `Cc1ccc(C(c2c[nH]c3ccc(C(=O)N/N=C/c4ccccc4Cl)cc23)c2c[nH]c3ccc(C(=O)N/N=C/c4ccccc4Cl)cc23)cc1`, 2.8 µM. In the case of `Cc1ccc(C(c2c[nH]c3ccc(C(=O)N/N=C/c4ccccc4O)cc23)c2c[nH]c3ccc(C(=O)N/N=C/c4ccccc4O)cc23)cc1`, the IC50 stood at 1.5 µM.

`Cc1ccc(C(c2c[nH]c3ccc(C(=O)N/N=C/c4cccc([N+](=O)[O-])c4)cc23)c2c[nH]c3ccc(C(=O)N/N=C/c4cccc([N+](=O)[O-])c4)cc23)cc1` registered an IC50 of 7.57 µM.

As for `Cc1ccc(C(c2c[nH]c3ccc(C(=O)N/N=C/c4ccc(F)cc4)cc23)c2c[nH]c3ccc(C(=O)N/N=C/c4ccc(F)cc4)cc23)cc1`, the midpoint of inhibition, the IC50, lay at 2.8 µM. The result for `Cc1ccc(C(c2c[nH]c3ccc(C(=O)N/N=C/c4ccc(O)c(O)c4)cc23)c2c[nH]c3ccc(C(=O)N/N=C/c4ccc(O)c(O)c4)cc23)cc1` reads 0.3 µM; that for `Cc1ccc(C(c2c[nH]c3ccc(C(=O)N/N=C/c4ccccc4)cc23)c2c[nH]c3ccc(C(=O)N/N=C/c4ccccc4)cc23)cc1`, 42.8 µM. The result for `Cc1ccc(C(c2c[nH]c3ccc(C(=O)N/N=C/c4ccc(Cl)cc4Cl)cc23)c2c[nH]c3ccc(C(=O)N/N=C/c4ccc(Cl)cc4Cl)cc23)cc1` reads 1.1 µM; that for `Cc1ccc(C(c2c[nH]c3ccc(C(=O)N/N=C/c4ccc(O)cc4)cc23)c2c[nH]c3ccc(C(=O)N/N=C/c4ccc(O)cc4)cc23)cc1`, 2.35 µM; that for `Cc1ccc(C(c2c[nH]c3ccc(C(=O)N/N=C/c4ccccn4)cc23)c2c[nH]c3ccc(C(=O)N/N=C/c4ccccn4)cc23)cc1`, 13.1 µM.

The molecule `COc1ccc(/C=N/NC(=O)c2ccc3[nH]cc(C(c4ccc(C)cc4)c4c[nH]c5ccc(C(=O)N/N=C/c6ccc(OC)cc6)cc45)c3c2)cc1` came in with an IC50 of 32.8 µM. Turning to `Cc1ccc(/C=N/NC(=O)c2ccc3[nH]cc(C(c4ccc(C)cc4)c4c[nH]c5ccc(C(=O)N/N=C/c6ccc(C)cc6)cc45)c3c2)cc1`, the IC50 amounted to 12.5 µM. With `COc1ccc(/C=N/NC(=O)c2ccc3[nH]cc(C(c4ccc(C)cc4)c4c[nH]c5ccc(C(=O)N/N=C/c6ccc(OC)c(O)c6I)cc45)c3c2)c(I)c1O` the figure was 43.5 µM; with `Cc1ccc(C(c2c[nH]c3ccc(C(=O)N/N=C/c4cccc(C)c4)cc23)c2c[nH]c3ccc(C(=O)N/N=C/c4cccc(C)c4)cc23)cc1`, 33.5 µM. The molecule `Cc1ccc(C(c2c[nH]c3ccc(C(=O)N/N=C/c4cccc(F)c4)cc23)c2c[nH]c3ccc(C(=O)N/N=C/c4cccc(F)c4)cc23)cc1` had an IC50 of 2.2 µM. Consider `Cc1ccc(C(c2c[nH]c3ccc(C(=O)N/N=C/c4ccncc4)cc23)c2c[nH]c3ccc(C(=O)N/N=C/c4ccncc4)cc23)cc1`, for which it took 23.4 µM to reach half-maximal inhibition (IC50). As for `Cc1ccc(C(c2c[nH]c3ccc(C(=O)N/N=C/c4cccnc4)cc23)c2c[nH]c3ccc(C(=O)N/N=C/c4cccnc4)cc23)cc1`, the IC50 came to 32.9 µM. The result for `Cc1ccc(C(c2c[nH]c3ccc(C(=O)N/N=C/c4ccccc4[N+](=O)[O-])cc23)c2c[nH]c3ccc(C(=O)N/N=C/c4ccccc4[N+](=O)[O-])cc23)cc1` reads 48.5 µM; that for `Cc1ccc(C(c2c[nH]c3ccc(C(=O)N/N=C/c4c(O)cc(O)cc4O)cc23)c2c[nH]c3ccc(C(=O)N/N=C/c4c(O)cc(O)cc4O)cc23)cc1`, 0.2 µM; that for `Cc1ccc(C(c2c[nH]c3ccc(C(=O)N/N=C/c4cccc(O)c4)cc23)c2c[nH]c3ccc(C(=O)N/N=C/c4cccc(O)c4)cc23)cc1`, 5.87 µM. In the case of `Cc1ccc(C(c2c[nH]c3ccc(C(=O)N/N=C/c4cc(O)c(O)cc4O)cc23)c2c[nH]c3ccc(C(=O)N/N=C/c4cc(O)c(O)cc4O)cc23)cc1`, it took 0.1 µM to reach half-maximal inhibition (IC50). The result for `Cc1ccc(C(c2c[nH]c3ccc(C(=O)N/N=C/c4ccccc4F)cc23)c2c[nH]c3ccc(C(=O)N/N=C/c4ccccc4F)cc23)cc1` reads 1.2 µM.

In turn, `Cc1ccc(C(c2c[nH]c3ccc(C(=O)N/N=C/c4ccc(F)c(Br)c4)cc23)c2c[nH]c3ccc(C(=O)N/N=C/c4ccc(F)c(Br)c4)cc23)cc1` yielded an IC50 of 15.8 µM. With `Cc1ccc(C(c2c[nH]c3ccc(C(=O)N/N=C/c4cccc(Cl)c4)cc23)c2c[nH]c3ccc(C(=O)N/N=C/c4cccc(Cl)c4)cc23)cc1` the figure was 6.9 µM. Molecule `Cc1ccc(C(c2c[nH]c3ccc(C(=O)N/N=C/c4ccc(O)cc4O)cc23)c2c[nH]c3ccc(C(=O)N/N=C/c4ccc(O)cc4O)cc23)cc1` displayed an IC50 of 0.3 µM.

The molecule `Cc1ccc(C(c2c[nH]c3ccc(C(=O)N/N=C/c4cccc(O)c4O)cc23)c2c[nH]c3ccc(C(=O)N/N=C/c4cccc(O)c4O)cc23)cc1` returned an IC50 of 0.1 µM.

The molecule `COc1ccc(O)c(/C=N/NC(=O)c2ccc3[nH]cc(C(c4ccc(C)cc4)c4c[nH]c5ccc(C(=O)N/N=C/c6cc(OC)ccc6O)cc45)c3c2)c1` returned an IC50 of 2.1 µM.

As to `Cc1ccc(C(c2c[nH]c3ccc(C(=O)N/N=C/c4ccccc4C)cc23)c2c[nH]c3ccc(C(=O)N/N=C/c4ccccc4C)cc23)cc1`, the IC50 was found to be 22.2 µM. The result for `Cc1ccc(C(c2c[nH]c3ccc(C(=O)N/N=C/C=C/c4ccccc4)cc23)c2c[nH]c3ccc(C(=O)N/N=C/C=C/c4ccccc4)cc23)cc1` reads 2.98 µM.
